The kinase profiling compilation of Christmann-Franck et al. (2016)
Values joined by “and” are separate entries in the source; they are usually repeats but may differ in a detail not shown here. Identical values can stand only once.

Assays:
Test in all cases: radiometric filter-binding kinase assay, Kinase HotSpot
Conditions in all cases: compound 0.5 µM; ATP 10 µM
[1] = target: KIT (human) (UniProt P10721)
[2] = target: ABL1 (human) (UniProt P00519)
[3] = target: VRK1 (human) (UniProt Q99986)
[4] = target: PAK6 (human) (UniProt Q9NQU5)
[5] = target: FYN (human) (UniProt P06241)
[6] = target: PAK4 (human) (UniProt O96013)
[7] = target: CAMK1 (human) (UniProt Q14012)
[8] = target: PIM2 (human) (UniProt Q9P1W9)
[9] = target: CAMK2D (human) (UniProt Q13557)
[10] = target: PAK3 (human) (UniProt O75914)
[11] = target: PRKCA (human) (UniProt P17252)
[12] = target: PIM3 (human) (UniProt Q86V86)
[13] = target: PRKG2 (human) (UniProt Q13237)
[14] = target: LYN (human) (UniProt P07948)
[15] = target: CDK5 CDK5R1 p35 (human) (UniProt Q00535+Q15078)
[16] = target: CDK9 CCNT1 (human) (UniProt P50750+O60563)
[17] = target: MAP3K11 (human) (UniProt Q16584)
[18] = target: PKN2 (human) (UniProt Q16513)
[19] = target: TTK (human) (UniProt P33981)
[20] = target: DAPK2 (human) (UniProt Q9UIK4)
[21] = target: MATK (human) (UniProt P42679)
[22] = target: DSTYK (human) (UniProt Q6XUX3)
[23] = target: CDC42BPA (human) (UniProt Q5VT25)
[24] = target: PRKCG (human) (UniProt P05129)
[25] = target: CSNK2A1 (human) (UniProt P68400)
[26] = target: EPHA7 (human) (UniProt Q15375)
[27] = target: CDK9 CCNK (human) (UniProt O75909+P50750)
[28] = target: CDK7 CCNH MNAT1 (human) (UniProt P50613+P51948+P51946)
[29] = target: ACVRL1 (human) (UniProt P37023)
[30] = target: MAP4K5 (human) (UniProt Q9Y4K4)
[31] = target: DYRK3 (human) (UniProt O43781)
[32] = target: STK3 (human) (UniProt Q13188)
[33] = target: PBK (human) (UniProt Q96KB5)
[34] = target: HIPK2 (human) (UniProt Q9H2X6)
[35] = target: PDGFRA (human) (UniProt P16234)
[36] = target: PRKCH (human) (UniProt P24723)
[37] = target: MELK (human) (UniProt Q14680)
[38] = target: MAP3K7 TAB1 (human) (UniProt O43318+Q15750)
[39] = target: ROCK2 (human) (UniProt O75116)
[40] = target: MST4 (human) (UniProt Q9P289)
[41] = target: FGR (human) (UniProt P09769)

CSNK2A1 (human), sequence (P68400 whole entry, looked up): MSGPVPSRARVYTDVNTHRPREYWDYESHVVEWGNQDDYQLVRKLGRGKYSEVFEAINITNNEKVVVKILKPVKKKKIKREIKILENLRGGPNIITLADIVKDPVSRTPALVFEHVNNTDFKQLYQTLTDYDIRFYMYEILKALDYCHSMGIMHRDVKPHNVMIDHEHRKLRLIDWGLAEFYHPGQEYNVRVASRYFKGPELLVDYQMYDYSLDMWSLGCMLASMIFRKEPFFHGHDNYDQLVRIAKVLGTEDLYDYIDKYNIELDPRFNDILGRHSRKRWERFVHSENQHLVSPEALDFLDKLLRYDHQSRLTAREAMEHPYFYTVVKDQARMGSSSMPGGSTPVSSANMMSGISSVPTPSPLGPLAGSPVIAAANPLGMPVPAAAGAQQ
ABL1 (human), sequence (P00519 whole entry, looked up): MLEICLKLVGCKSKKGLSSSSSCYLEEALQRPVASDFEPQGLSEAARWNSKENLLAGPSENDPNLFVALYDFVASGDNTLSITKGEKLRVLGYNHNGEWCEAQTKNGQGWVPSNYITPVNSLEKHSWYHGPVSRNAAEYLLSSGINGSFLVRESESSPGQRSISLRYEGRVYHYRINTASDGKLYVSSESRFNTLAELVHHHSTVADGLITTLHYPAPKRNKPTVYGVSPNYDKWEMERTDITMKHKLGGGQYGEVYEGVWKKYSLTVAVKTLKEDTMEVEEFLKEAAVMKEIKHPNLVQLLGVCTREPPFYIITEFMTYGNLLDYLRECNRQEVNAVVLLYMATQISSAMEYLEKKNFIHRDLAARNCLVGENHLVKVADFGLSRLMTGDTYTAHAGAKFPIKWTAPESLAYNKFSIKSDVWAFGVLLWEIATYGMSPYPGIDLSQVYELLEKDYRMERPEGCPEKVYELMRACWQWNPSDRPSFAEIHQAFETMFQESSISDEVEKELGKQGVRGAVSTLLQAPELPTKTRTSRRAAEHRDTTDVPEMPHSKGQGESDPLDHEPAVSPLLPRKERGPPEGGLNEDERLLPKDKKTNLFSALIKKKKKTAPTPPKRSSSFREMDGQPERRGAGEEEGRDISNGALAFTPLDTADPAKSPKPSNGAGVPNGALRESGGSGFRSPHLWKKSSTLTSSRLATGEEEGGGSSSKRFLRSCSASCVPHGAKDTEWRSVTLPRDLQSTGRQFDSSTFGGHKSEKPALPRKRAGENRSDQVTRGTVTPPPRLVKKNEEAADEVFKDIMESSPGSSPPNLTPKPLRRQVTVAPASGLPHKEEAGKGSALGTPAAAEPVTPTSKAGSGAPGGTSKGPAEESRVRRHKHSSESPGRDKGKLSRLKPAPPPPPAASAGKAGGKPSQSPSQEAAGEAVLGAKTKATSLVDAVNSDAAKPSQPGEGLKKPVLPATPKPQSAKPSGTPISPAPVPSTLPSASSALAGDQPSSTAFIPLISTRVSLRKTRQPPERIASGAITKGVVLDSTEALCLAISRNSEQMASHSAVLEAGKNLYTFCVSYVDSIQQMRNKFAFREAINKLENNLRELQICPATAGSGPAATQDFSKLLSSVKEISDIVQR
CAMK1 (human), sequence (Q14012 whole entry, looked up): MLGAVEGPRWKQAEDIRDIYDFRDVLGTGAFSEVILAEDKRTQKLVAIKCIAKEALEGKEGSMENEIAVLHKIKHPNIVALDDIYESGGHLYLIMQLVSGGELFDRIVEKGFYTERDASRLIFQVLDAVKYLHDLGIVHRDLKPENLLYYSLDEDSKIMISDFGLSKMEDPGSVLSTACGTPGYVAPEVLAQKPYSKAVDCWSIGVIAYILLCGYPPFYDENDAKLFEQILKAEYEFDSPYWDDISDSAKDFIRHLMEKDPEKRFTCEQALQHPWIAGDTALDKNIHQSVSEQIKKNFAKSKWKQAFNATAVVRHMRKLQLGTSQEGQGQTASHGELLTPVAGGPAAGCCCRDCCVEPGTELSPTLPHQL
DYRK3 (human), sequence (O43781 whole entry, looked up): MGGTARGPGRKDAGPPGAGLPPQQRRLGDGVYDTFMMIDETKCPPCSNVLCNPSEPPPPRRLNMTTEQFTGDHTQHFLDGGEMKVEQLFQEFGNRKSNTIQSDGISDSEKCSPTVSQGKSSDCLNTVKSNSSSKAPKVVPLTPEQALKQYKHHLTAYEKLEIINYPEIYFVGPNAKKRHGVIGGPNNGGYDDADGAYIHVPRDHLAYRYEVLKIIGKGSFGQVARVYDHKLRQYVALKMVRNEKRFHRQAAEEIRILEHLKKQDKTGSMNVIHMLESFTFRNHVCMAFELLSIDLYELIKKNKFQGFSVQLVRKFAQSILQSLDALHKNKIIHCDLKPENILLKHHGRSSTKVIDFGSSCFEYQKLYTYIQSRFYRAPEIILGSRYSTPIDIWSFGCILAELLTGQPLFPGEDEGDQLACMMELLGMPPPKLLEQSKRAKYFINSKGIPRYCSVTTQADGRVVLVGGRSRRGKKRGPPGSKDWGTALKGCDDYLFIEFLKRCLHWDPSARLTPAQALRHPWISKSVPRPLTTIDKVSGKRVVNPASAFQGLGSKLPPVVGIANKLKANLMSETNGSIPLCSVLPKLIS
PRKCH (human), sequence (P24723 whole entry, looked up): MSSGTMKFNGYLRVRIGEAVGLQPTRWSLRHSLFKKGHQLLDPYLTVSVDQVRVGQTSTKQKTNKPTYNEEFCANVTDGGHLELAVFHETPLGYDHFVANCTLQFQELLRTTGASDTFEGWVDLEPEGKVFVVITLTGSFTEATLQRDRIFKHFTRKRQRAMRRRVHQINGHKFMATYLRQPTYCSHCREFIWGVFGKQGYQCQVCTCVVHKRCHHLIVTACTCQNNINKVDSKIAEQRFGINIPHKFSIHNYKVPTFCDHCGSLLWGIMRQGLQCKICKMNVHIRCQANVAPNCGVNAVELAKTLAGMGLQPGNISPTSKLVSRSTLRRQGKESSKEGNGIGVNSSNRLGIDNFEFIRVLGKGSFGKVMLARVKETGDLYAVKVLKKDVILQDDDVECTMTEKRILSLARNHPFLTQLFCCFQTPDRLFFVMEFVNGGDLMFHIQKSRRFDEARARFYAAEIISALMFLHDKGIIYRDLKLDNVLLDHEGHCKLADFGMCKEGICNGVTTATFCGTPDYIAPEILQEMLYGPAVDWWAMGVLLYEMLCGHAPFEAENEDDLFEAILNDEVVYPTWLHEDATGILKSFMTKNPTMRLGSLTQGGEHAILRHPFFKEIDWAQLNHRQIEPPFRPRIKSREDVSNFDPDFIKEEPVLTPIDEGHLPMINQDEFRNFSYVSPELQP
PDGFRA (human), sequence (P16234 whole entry, looked up): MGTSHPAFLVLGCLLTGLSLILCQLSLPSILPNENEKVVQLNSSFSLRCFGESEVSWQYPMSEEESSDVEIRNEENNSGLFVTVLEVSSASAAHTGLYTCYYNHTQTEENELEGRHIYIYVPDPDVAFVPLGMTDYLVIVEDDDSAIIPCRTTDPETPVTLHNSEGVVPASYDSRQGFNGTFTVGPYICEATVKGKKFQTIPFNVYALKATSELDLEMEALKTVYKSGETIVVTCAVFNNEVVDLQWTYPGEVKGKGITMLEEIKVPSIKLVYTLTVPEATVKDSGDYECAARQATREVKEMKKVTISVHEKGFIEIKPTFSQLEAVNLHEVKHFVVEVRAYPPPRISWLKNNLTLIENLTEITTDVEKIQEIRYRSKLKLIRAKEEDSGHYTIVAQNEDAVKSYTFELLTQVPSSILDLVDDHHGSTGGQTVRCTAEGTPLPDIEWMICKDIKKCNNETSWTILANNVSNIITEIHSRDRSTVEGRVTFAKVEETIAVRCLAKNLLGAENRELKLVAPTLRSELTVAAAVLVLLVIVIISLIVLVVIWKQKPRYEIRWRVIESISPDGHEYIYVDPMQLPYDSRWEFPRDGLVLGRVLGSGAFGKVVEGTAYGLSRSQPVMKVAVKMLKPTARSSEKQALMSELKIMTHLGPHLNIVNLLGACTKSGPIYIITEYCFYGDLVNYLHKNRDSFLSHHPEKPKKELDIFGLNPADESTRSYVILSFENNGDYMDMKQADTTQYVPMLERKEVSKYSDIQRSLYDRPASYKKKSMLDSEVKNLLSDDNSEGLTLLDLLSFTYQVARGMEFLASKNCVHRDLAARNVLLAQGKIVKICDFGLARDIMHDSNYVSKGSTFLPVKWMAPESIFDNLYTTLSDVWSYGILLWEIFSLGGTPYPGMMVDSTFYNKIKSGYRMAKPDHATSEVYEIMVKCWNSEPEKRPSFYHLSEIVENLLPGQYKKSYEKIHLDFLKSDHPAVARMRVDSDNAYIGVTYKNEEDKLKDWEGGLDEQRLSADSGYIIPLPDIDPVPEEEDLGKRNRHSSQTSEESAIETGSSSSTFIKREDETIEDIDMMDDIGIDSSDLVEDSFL

Cc1cc(Nc2nc(-c3ccccc3)nc3ccccc23)n[nH]1
residual activity [1]: 40.8%
residual activity [2]: 75.4%
residual activity [3]: 81%
residual activity [4]: 78.9%
residual activity [5]: 40%
residual activity [6]: 84.2%
residual activity [7]: 93.1%
residual activity [8]: 92.7%
residual activity [9]: 97.3%
residual activity [10]: 90.2%
residual activity [11]: 92.2%
residual activity [12]: 130%
residual activity [13]: 98.2%
residual activity [14]: 79.9% and 88.7%
residual activity [15]: 77.1%
residual activity [16]: 89.1%
residual activity [17]: 18.1%
residual activity [18]: 87.2%
residual activity [19]: 102%
residual activity [20]: 89.5%
residual activity [21]: 96.1%
residual activity [22]: 86%
residual activity [23]: 108%
residual activity [24]: 98.6%
residual activity [25]: 27%
residual activity [26]: 72.5%
residual activity [27]: 89.8%
residual activity [28]: 73.3%
residual activity [29]: 115%
residual activity [30]: 20.2%
residual activity [31]: 81.9%
residual activity [32]: 58.5%
residual activity [33]: 95.4%
residual activity [34]: 101%
residual activity [35]: 81.6%
residual activity [36]: 89.6%
residual activity [37]: 69.1%
residual activity [38]: 78.3%
residual activity [39]: 87.6%
residual activity [40]: 91.2%
residual activity [41]: 54.8%

O=C1NC(=O)c2cc(Nc3ccc(F)cc3)c(Nc3ccc(F)cc3)cc21
residual activity [1]: 97.2%
residual activity [2]: 95.7%
residual activity [3]: 93%
residual activity [4]: 106%
residual activity [5]: 99.4%
residual activity [6]: 95.1%
residual activity [7]: 104%
residual activity [8]: 98.6%
residual activity [9]: 97.9%
residual activity [10]: 99.4%
residual activity [11]: 99.3%
residual activity [12]: 105%
residual activity [13]: 83.3%
residual activity [14]: 97.8% and 98.7%
residual activity [15]: 98.5%
residual activity [16]: 95.4%
residual activity [17]: 98.4%
residual activity [18]: 102%
residual activity [19]: 95.4%
residual activity [20]: 96.7%
residual activity [21]: 93.5%
residual activity [22]: 95.6%
residual activity [23]: 92.3%
residual activity [24]: 102%
residual activity [25]: 95.7%
residual activity [26]: 84.6%
residual activity [27]: 90.8%
residual activity [28]: 100%
residual activity [29]: 95.9%
residual activity [30]: 89.5%
residual activity [31]: 97.1%
residual activity [32]: 90.7%
residual activity [33]: 88.4%
residual activity [34]: 96.6%
residual activity [35]: 101%
residual activity [36]: 83.3%
residual activity [37]: 92%
residual activity [38]: 98.8%
residual activity [39]: 92.8%
residual activity [40]: 99%
residual activity [41]: 96.3%

O=c1c(-c2ccc(F)cc2)c(-c2ccncc2)[nH]n1-c1ccc(Cl)cc1
residual activity [1]: 94.9%
residual activity [2]: 98.1%
residual activity [3]: 92.9%
residual activity [4]: 73.5%
residual activity [5]: 94.8%
residual activity [6]: 82%
residual activity [7]: 94.4%
residual activity [8]: 114%
residual activity [9]: 95.6%
residual activity [10]: 98.3%
residual activity [11]: 100%
residual activity [12]: 89.9%
residual activity [13]: 110%
residual activity [14]: 97.5% and 99.7%
residual activity [15]: 104%
residual activity [16]: 101%
residual activity [17]: 98%
residual activity [18]: 96.4%
residual activity [19]: 110%
residual activity [20]: 104%
residual activity [21]: 86%
residual activity [22]: 92.9%
residual activity [23]: 98%
residual activity [24]: 101%
residual activity [25]: 95.3%
residual activity [26]: 98.5%
residual activity [27]: 93.4%
residual activity [28]: 97.4%
residual activity [29]: 88.1%
residual activity [30]: 83.1%
residual activity [31]: 82.7%
residual activity [32]: 88.3%
residual activity [33]: 87.7%
residual activity [34]: 89%
residual activity [35]: 103%
residual activity [36]: 89%
residual activity [37]: 86.5%
residual activity [38]: 100%
residual activity [39]: 89.5%
residual activity [40]: 94.1%
residual activity [41]: 87.4%

O=C(c1ccccc1)c1ccc(N2CCOCC2)cc1O
residual activity [1]: 96.2%
residual activity [2]: 102%
residual activity [3]: 89.7%
residual activity [4]: 93.6%
residual activity [5]: 106%
residual activity [6]: 104%
residual activity [7]: 97.5%
residual activity [8]: 105%
residual activity [9]: 95.1%
residual activity [10]: 99.4%
residual activity [11]: 84.2%
residual activity [12]: 98.9%
residual activity [13]: 102%
residual activity [14]: 100% and 105%
residual activity [15]: 97%
residual activity [16]: 97.9%
residual activity [17]: 93.2%
residual activity [18]: 96.8%
residual activity [19]: 104%
residual activity [20]: 102%
residual activity [21]: 92.5%
residual activity [22]: 86.2%
residual activity [23]: 95.5%
residual activity [24]: 95.6%
residual activity [25]: 91.1%
residual activity [26]: 98.4%
residual activity [27]: 97.8%
residual activity [28]: 106%
residual activity [29]: 105%
residual activity [30]: 100%
residual activity [31]: 98.9%
residual activity [32]: 100%
residual activity [33]: 114%
residual activity [34]: 105%
residual activity [35]: 91.9%
residual activity [36]: 70%
residual activity [37]: 103%
residual activity [38]: 101%
residual activity [39]: 96%
residual activity [40]: 101%
residual activity [41]: 104%

c1ccc(-c2cnc(Nc3ccc(OCCN4CCCC4)cc3)s2)cc1
residual activity [1]: 20.3%
residual activity [2]: 63.3%
residual activity [3]: 89.1%
residual activity [4]: 101%
residual activity [5]: 81.1%
residual activity [6]: 106%
residual activity [7]: 86.3%
residual activity [8]: 108%
residual activity [9]: 48.2%
residual activity [10]: 99.1%
residual activity [11]: 106%
residual activity [12]: 120%
residual activity [13]: 106%
residual activity [14]: 65.1% and 87.5%
residual activity [15]: 82.4%
residual activity [16]: 66.1%
residual activity [17]: 84.4%
residual activity [18]: 97%
residual activity [19]: 102%
residual activity [20]: 90.3%
residual activity [21]: 94.3%
residual activity [22]: 90.8%
residual activity [23]: 91%
residual activity [24]: 92.5%
residual activity [25]: 90.7%
residual activity [26]: 98%
residual activity [27]: 39.8%
residual activity [28]: 102%
residual activity [29]: 108%
residual activity [30]: 72.5%
residual activity [31]: 106%
residual activity [32]: 108%
residual activity [33]: 108%
residual activity [34]: 97.5%
residual activity [35]: 57.4%
residual activity [36]: 88.2%
residual activity [37]: 83.5%
residual activity [38]: 102%
residual activity [39]: 91.7%
residual activity [40]: 101%
residual activity [41]: 65.7%
